The subject of the experiment is P388 leukemia ip, CD2F1 mice, survival T/C. Put plainly: NCI In Vivo Anticancer Drug Screen. Data for tumor model P388 Leukemia (intraperitoneal) in CD2F1 (CDF1) mice. The note with it: endpoint: median survival time, higher = longer survival. In outline:
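Mice carrying the transplanted tumor received test compound or vehicle. Survival was recorded in each group, and the value is the treated-group measurement divided by that of the vehicle-treated control group.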

The mark [1] stands for this setting: dose: 25.0 mg/kg/injection, schedule: Q01DX009 (ip), vehicle: saline.
Setting [2] is: dose: 50.0 mg/kg/injection, schedule: Q01DX009 (ip), vehicle: saline.
Where [3] appears, read: dose: 100.0 mg/kg/injection, schedule: Q01DX009 (ip), vehicle: saline.
Where [4] appears, read: dose: 200.0 mg/kg/injection, schedule: Q01DX009 (ip), vehicle: saline.
Where [5] appears, read: dose: 50.0 mg/kg/injection, schedule: Q01DX009 (ip), vehicle: Klucel (hydroxypropylcellulose) (HPC).
[6] abbreviates: dose: 100.0 mg/kg/injection, schedule: Q01DX009 (ip), vehicle: Klucel (hydroxypropylcellulose) (HPC).
Where [7] appears, read: dose: 200.0 mg/kg/injection, schedule: Q01DX009 (ip), vehicle: Klucel (hydroxypropylcellulose) (HPC).
The mark [8] stands for this setting: dose: 50.0 mg/kg/injection, schedule: Q01DX005 (ip), vehicle: Klucel (hydroxypropylcellulose) (HPC).
Where [9] appears, read: dose: 100.0 mg/kg/injection, schedule: Q01DX005 (ip), vehicle: Klucel (hydroxypropylcellulose) (HPC).
[10] abbreviates: dose: 200.0 mg/kg/injection, schedule: Q01DX005 (ip), vehicle: Klucel (hydroxypropylcellulose) (HPC).

The structures appear in SMILES notation. “And” between values parts separate entries of the source, which are not always exact repeats. Equal values may be shown once. Inconclusive results and toxic doses are left out.

`COc1cccc2c1C(=O)c1c(O)c3c(c(O)c1C2=O)C[C@@](O)(/C(C)=N/NS(C)(=O)=O)C[C@@H]3OC1CC(N)C(O)C(C)O1` (some centres undefined): the T/C was 157 % of control (dose: 3.13 mg/kg/injection, schedule: Q01DX009 (ip), vehicle: water); 164 % of control and 166 % of control (dose: 6.25 mg/kg/injection, schedule: Q01DX009 (ip), vehicle: water); 183 % of control and 187 % of control (dose: 12.5 mg/kg/injection, schedule: Q01DX009 (ip), vehicle: water); 166 % of control under setting [1]; 117 % of control and 201 % of control (dose: 25.0 mg/kg/injection, schedule: Q01DX009 (ip), vehicle: water); 193 % of control under setting [2]. Moreover, the T/C was 99 % of control (dose: 50.0 mg/kg/injection, schedule: Q01DX009 (ip), vehicle: water); 283 % of control under setting [3]; 108 % of control under setting [4].

As for `O=C1c2ccccc2C(=O)N1S(=O)(=O)C/C=C/CCl`, the T/C is 94 % of control (dose: 12.5 mg/kg/injection, schedule: Q01DX009 (ip), vehicle: saline with Tween-80); 97 % of control (dose: 25.0 mg/kg/injection, schedule: Q01DX009 (ip), vehicle: saline with Tween-80); 105 % of control (dose: 50.0 mg/kg/injection, schedule: Q01DX009 (ip), vehicle: saline with Tween-80); 110 % of control under setting [2]; 103 % of control under setting [3]; 108 % of control under setting [4].

As to `COc1ccc(-c2nn3c(=O)c(Cc4ccccc4)c(O)nc3nc2-c2ccccc2)cc1`, the T/C runs as follows: (dose: 6.25 mg/kg/injection, schedule: Q01DX005 (ip), vehicle: Klucel (hydroxypropylcellulose) (HPC)) 103 % of control; (dose: 12.5 mg/kg/injection, schedule: Q01DX005 (ip), vehicle: Klucel (hydroxypropylcellulose) (HPC)) 93 % of control.

Regarding `O=C1NC(=O)C2(OC3c4ccccc4C=NN3C3=C2C(=O)CC3)C(=O)N1` (centres undefined), the T/C (dose: 100.0 mg/kg/injection, schedule: Q01DX001 (ip), vehicle: saline with Tween-80) was 101 % of control; the T/C (dose: 200.0 mg/kg/injection, schedule: Q01DX001 (ip), vehicle: saline with Tween-80) was 100 % of control; the T/C (dose: 400.0 mg/kg/injection, schedule: Q01DX001 (ip), vehicle: saline with Tween-80) is 104 % of control.

As for `COc1cccc(C)c1C1CC2CCCN2O1` (centres undefined), the T/C under setting [5] was 105 % of control, the T/C under setting [6] is 106 % of control and the T/C under setting [7] is 89 % of control.

As for `C1CN(CCSSCCN2CCOCC2)CCO1`, the T/C by setting is: under setting [2], 104 % of control; under setting [3], 113 % of control; under setting [4], 109 % of control.

For `COc1c2c(c(OC)c3c1C(=O)c1ccccc1C3=O)C(=O)CCC2`, the T/C by setting is: (dose: 30.0 mg/kg/injection, schedule: Q01DX005 (ip), vehicle: saline with Tween-80) 93 % of control; (dose: 60.0 mg/kg/injection, schedule: Q01DX005 (ip), vehicle: saline with Tween-80) 91 % of control; (dose: 120.0 mg/kg/injection, schedule: Q01DX005 (ip), vehicle: saline with Tween-80) 87 % of control; (dose: 240.0 mg/kg/injection, schedule: Q01DX005 (ip), vehicle: saline with Tween-80) 88 % of control.

Consider `CC(=O)Oc1c([N+](=O)[O-])cccc1[N+](=O)[O-]`, for which the T/C reads like this: (dose: 3.13 mg/kg/injection, schedule: Q01DX009 (ip), vehicle: distilled water + Tween-80) 111 % of control; (dose: 6.25 mg/kg/injection, schedule: Q01DX009 (ip), vehicle: clinical formulation) 100 % of control; (dose: 6.25 mg/kg/injection, schedule: Q01DX009 (ip), vehicle: distilled water + Tween-80) 100 % of control and 112 % of control; (dose: 12.5 mg/kg/injection, schedule: Q01DX009 (ip), vehicle: clinical formulation) 103 % of control; (dose: 12.5 mg/kg/injection, schedule: Q01DX009 (ip), vehicle: distilled water + Tween-80) 107 % of control; (dose: 25.0 mg/kg/injection, schedule: Q01DX009 (ip), vehicle: clinical formulation) 108 % of control. The T/C is 107 % of control (dose: 25.0 mg/kg/injection, schedule: Q01DX009 (ip), vehicle: distilled water + Tween-80); 109 % of control and 115 % of control (dose: 50.0 mg/kg/injection, schedule: Q01DX009 (ip), vehicle: distilled water + Tween-80); 96 % of control (dose: 100.0 mg/kg/injection, schedule: Q01DX009 (ip), vehicle: distilled water + Tween-80).

As for `O=C(N/N=C\c1c(O)ccc2ccccc12)C1CC1`, the T/C is, setting by setting: under setting [8], 103 % of control; under setting [9], 97 % of control; under setting [10], 101 % of control.

Take `COc1ccc(C(=O)/C=C/c2cc3c(cc2OCc2ccccc2)OCO3)c(OCc2ccccc2)c1`: the T/C (dose: 75.0 mg/kg/injection, schedule: Q04DX003 (ip), vehicle: Klucel (hydroxypropylcellulose) (HPC)) was 99 % of control; the T/C (dose: 150.0 mg/kg/injection, schedule: Q04DX003 (ip), vehicle: Klucel (hydroxypropylcellulose) (HPC)) was 94 % of control; the T/C (dose: 300.0 mg/kg/injection, schedule: Q04DX003 (ip), vehicle: Klucel (hydroxypropylcellulose) (HPC)) is 90 % of control.

Take `SC1(S)CN2CCC1CC2`: the T/C (dose: 6.25 mg/kg/injection, schedule: Q01DX009 (ip), vehicle: saline) is 104 % of control and the T/C (dose: 12.5 mg/kg/injection, schedule: Q01DX009 (ip), vehicle: saline) is 100 % of control.

As for `CCCCCCCCNC(=O)OCc1c2ccccc2cc2ccccc12`, the T/C runs as follows: under setting [5], 98 % of control; under setting [6], 101 % of control; under setting [7], 98 % of control.

In the case of `O=C1C(c2ccc3ccccc3n2)=C(O)c2ccccc21`, the T/C by setting is: (dose: 15.0 mg/kg/injection, schedule: Q01DX005 (ip), vehicle: Klucel (hydroxypropylcellulose) (HPC)) 101 % of control; (dose: 30.0 mg/kg/injection, schedule: Q01DX005 (ip), vehicle: Klucel (hydroxypropylcellulose) (HPC)) 96 % of control; (dose: 60.0 mg/kg/injection, schedule: Q01DX005 (ip), vehicle: Klucel (hydroxypropylcellulose) (HPC)) 101 % of control and 88 % of control.

Regarding `COC(=O)C1=C(C(=O)OC)P2(c3ccccc3)(c3ccccc3)N(C)C(=S)N2C1(c1ccccc1)c1ccccc1`, the T/C under setting [8] was 103 % of control, the T/C under setting [9] is 105 % of control and the T/C under setting [10] was 90 % of control.

Consider `Cc1ccc(C(=O)NN2C(N)=NC(N)=NC2(C)C)cc1`, for which the T/C was 100 % of control (dose: 50.0 mg/kg/injection, schedule: Q04DX003 (ip), vehicle: saline) and 105 % of control (dose: 100.0 mg/kg/injection, schedule: Q04DX003 (ip), vehicle: saline).

For `CCOC(=O)C(=CC=C(C(=O)OCC)C(=O)OCC)C(=O)OCC`, the T/C runs as follows: (dose: 100.0 mg/kg/injection, schedule: Q04DX002 (ip), vehicle: saline with Tween-80) 112 % of control; (dose: 200.0 mg/kg/injection, schedule: Q04DX002 (ip), vehicle: saline with Tween-80) 113 % of control; (dose: 400.0 mg/kg/injection, schedule: Q04DX002 (ip), vehicle: saline with Tween-80) 115 % of control.

For `C/C=C/COc1cc2c(cc1C(C)c1ccc(OC)cc1)OCO2` (centres undefined), the T/C was 107 % of control (dose: 50.0 mg/kg/injection, schedule: Q01DX005 (ip), vehicle: saline with Tween-80); 106 % of control (dose: 100.0 mg/kg/injection, schedule: Q01DX005 (ip), vehicle: saline with Tween-80); 119 % of control (dose: 200.0 mg/kg/injection, schedule: Q01DX005 (ip), vehicle: saline with Tween-80).

Regarding `Cc1cccn2ccnc12`, the T/C reads like this: under setting [1], 100 % of control and 93 % of control; under setting [2], 100 % of control and 96 % of control; under setting [3], 120 % of control and 94 % of control.

As to `CC1N=C(SCC(=O)c2ccc(F)cc2)N2C(C)N=C(SCC(=O)c3ccc(F)cc3)N12` (centres undefined), the T/C by setting is: under setting [2], 111 % of control; under setting [3], 111 % of control; under setting [4], 98 % of control.

With `ClC(Cl)(Cl)C1=NC2=C(Br)C=C(Br)C3=NC(C(Br)(Br)Br)=NC(=N1)N32`, the T/C reads like this: (dose: 60.0 mg/kg/injection, schedule: Q01DX005 (ip), vehicle: Klucel + Tween-80) 105 % of control; (dose: 120.0 mg/kg/injection, schedule: Q01DX005 (ip), vehicle: Klucel + Tween-80) 110 % of control.

Take `COc1c(I)c2c(c(OC)c1OC)-c1ccc(OC)c(=O)cc1C(NC(C)=O)CC2` (centres undefined): the T/C was 178 % of control (dose: 6.25 mg/kg/injection, schedule: Q01DX009 (ip), vehicle: Klucel (hydroxypropylcellulose) (HPC)) and 167 % of control (dose: 12.5 mg/kg/injection, schedule: Q01DX009 (ip), vehicle: Klucel (hydroxypropylcellulose) (HPC)).

The values are drawn from PubChem BioAssay AID330 (DTP/NCI, 2004).
